The values that follow come from patent US6348445B1, “Biologically active peptides with reduced toxicity in animals and a method for preparing same” (priority 1992, dated 2002).

What all share (assay type): cell-based
The subject of experiment [1] is P. aeruginosa strain ATCC 27853. The note with it: ATCC 27853. The source says: (§1) Table I, which follows, indicates the Minimal Inhibitory Concentration (MIC) in […] of various peptides against S.aureus strain ATCC 25923(S), P. aeruginosa strain ATCC 27853(P), E. coli ATCC strain 25922(E), and C. 4albicans (CA). […] The peptides are unsubstituted at the N-terminal; substituted with an acetyl group at the N-terminal, as indicated by Ac-; substituted with an octanoyl group at the N-terminal, as indicated by Oct-; substituted with spinogosine, as indicated by Sph-; substituted with a succinyl group, as indicated by Suc-; substituted with a hexanoyl group, as indicated by Hex-; substituted with a heptanoyl group, as indicated by Hep-; substituted with a valeryl group, as indicated by Val-; substituted with a myristryl group, as indicated by Myr-; or substituted with an ibuprofyl group, as indicated by Ibu-;
(§2) The procedure for the anti-bacterial assay is based upon the guidelines of the National Committee for Clinical Laboratory Standards, Document M7-T2, Volume 8, No. 8, 1988, which document is entirely incorporated herein by reference.
(§3) Stock solutions of peptides, with and without the appropriate substitutions, were prepared at a concentration of 512 μg/ml in sterile deionized distilled water and stored at −70° C.
(§4) The stock peptide solution was diluted in serial dilutions (1:2) down the wells of a microtiter plate so that the final concentrations of peptides in the wells were 0.25, 0.50, 1, 2, 4, 8, 16, 32, 64, 128 and 256 μg/ml. 1-5×10^5 CFUs/ml of either S. aureus ATCC 25923, E. coli ATCC 25922, P. aeruginosa ATCC 27853, or C. albicans, were added to the wells in full strength Mueller Hinton broth (BBL 11443) from a mid-log culture. The inoculum was standardized spectrophotometrically at 600 nm and was verified by colony counts. The plates were incubated for 16-20 hours at 37° C., and the minimal inhibitory concentration (MIC) for each peptide was determined. Minimal inhibitory concentration is defined as the lowest concentration of peptide which produces a clear well in the microtiter plate. The minimal inhibitory concentration of each of the peptides with and/or without the appropriate substitutions is given in Table I below.
(§5) The in vitro anti-microbial activities of the methane sulfonate derivatives were determined according to the methods described in Examples 1 and 2. The activities against ATCC strains of S. aureus, E. coli, P. aeruginosa, and C. albicans, and the hemolysis of red blood cells were compared to the parent compound (Table IV). The activities for Compound 843 (Oct-SEQ ID NO:143) methane sulfonate against clinical strains of P. aeruginosa isolated from cystic fibrosis patients were compared to the parent compound (Table V). The activity for Compound 469 (Oct-SEQ ID NO:27) methane sulfonate against P. gingivalis was compared to the parent compound (Table VI).

Experiment [2] deals with E. coli ATCC strain 25922. Kind of experiment: Minimal Inhibitory Concentration, microtiter broth dilution. To be noted: ATCC strain 25922.
Text: as §1, §2, §3, §4, §5

In a further experiment the test system is C. albicans.
Text: as §1, §2, §3, §4

SMILES strings stand for the structures. Where a SMILES comes first, the peptide text is derived from it. [ ]: non-standard residue; d: D form. The star is where a group is joined. Heptanoyl = CCCCCCC(=O)*; Octanoyl = CCCCCCCC(=O)*; Orn = NCCC[C@H](N)C(=O)O

In the case of `CCCCCCCC(=O)N[C@@H](CCCCN)C(=O)N[C@@H](CC(C)C)C(=O)N[C@@H](CCCCN)C(=O)N[C@@H](CCCCN)C(=O)N[C@@H](CCCCN)C(=O)N[C@@H](Cc1ccccc1)C(=O)N[C@@H](CC(C)C)C(=O)N[C@@H](CCCCN)C(=O)N[C@@H](CCCCN)C(=O)N[C@@H](CC(C)C)C(N)=O` [Oct-(SEQ ID NO: 129)-NH2] (Octanoyl-KLKKKFLKKL-NH2), in experiment [1], the “Minimal Inhibitory Concentration P” value stood at 16 µg/mL. Further, the “Minimal Inhibitory Concentration E” value in experiment [2] turned out to be 32 µg/mL. Besides, the “Minimal Inhibitory Concentration CA” value with C. albicans came out at 128 µg/mL.

With `CCCCCCCC(=O)N[C@@H](CCCCN)C(=O)N[C@@H](CC(C)C)C(=O)N[C@@H](CCCCN)C(=O)N[C@@H](CCCCN)C(=O)N[C@@H](CC(C)C)C(=O)N[C@@H](CCCCN)C(=O)N[C@@H](CCCCN)C(=O)N[C@@H](CC(C)C)C(=O)N[C@@H](Cc1ccccc1)C(=O)N[C@@H](CCCCN)C(N)=O` [Oct-(SEQ ID NO: 148)-NH2] (Octanoyl-KLKKLKKLFK-NH2), the “Minimal Inhibitory Concentration P” value in experiment [1] amounted to 8 µg/mL. Further, the “Minimal Inhibitory Concentration E” value in experiment [2] is 32 µg/mL. Besides, in the experiment on C. albicans, the “Minimal Inhibitory Concentration CA” value stood at 128 µg/mL.

Regarding `CCCCCCCC(=O)N[C@@H](CCCCN)C(=O)N[C@@H](CCCCN)C(=O)N[C@@H](Cc1ccccc1)C(=O)NCC(=O)N[C@@H](CCCCN)C(=O)N[C@@H](CCCCN)C(=O)N[C@@H](Cc1ccccc1)C(=O)N[C@H](C(=O)N[C@@H](CCCCN)C(=O)N[C@H](C(=O)N[C@@H](CC(C)C)C(=O)N[C@@H](CCCCN)C(=O)N[C@@H](CCCCN)C(N)=O)[C@@H](C)CC)C(C)C` [Oct-(SEQ ID NO: 135)-NH2] (Octanoyl-KKFGKKFVKILKK-NH2), the “Minimal Inhibitory Concentration P” value in experiment [1] was 8 µg/mL. The “Minimal Inhibitory Concentration E” value in experiment [2] was 64 µg/mL. The “Minimal Inhibitory Concentration CA” value in the experiment with C. albicans was determined as 64 µg/mL.

Turning to `CCCCCCCC(=O)N[C@@H](CCCCN)C(=O)N[C@@H](Cc1ccccc1)C(=O)N[C@@H](C)C(=O)N[C@@H](CCCCN)C(=O)N[C@@H](CCCCN)C(=O)N[C@@H](Cc1ccccc1)C(=O)N[C@@H](C)C(=O)N[C@@H](CCCCN)C(=O)N[C@@H](Cc1ccccc1)C(=O)N[C@@H](C)C(=O)N[C@@H](CCCCN)C(=O)N[C@@H](CCCCN)C(=O)N[C@@H](Cc1ccccc1)C(=O)N[C@@H](C)C(N)=O` [Oct-(SEQ ID NO: 125)-NH2] (Octanoyl-KFAKKFAKFAKKFA-NH2), the “Minimal Inhibitory Concentration P” value in experiment [1] came to 8 µg/mL. The “Minimal Inhibitory Concentration E” value in experiment [2] was determined as 16 µg/mL. For the same compound, the “Minimal Inhibitory Concentration CA” value in the experiment with C. albicans turned out to be 64 µg/mL.

Regarding `CCCCCCCC(=O)N[C@@H](CCCCN)C(=O)N[C@@H](CCCCN)C(=O)N[C@@H](CC(C)C)C(=O)N[C@@H](CC(C)C)C(=O)N[C@@H](CCCCN)C(=O)N[C@@H](CCCCN)C(=O)N[C@@H](CC(C)C)C(=O)N[C@@H](CCCCN)C(=O)N[C@@H](CCCCN)C(=O)N[C@@H](CC(C)C)C(=O)N[C@@H](CC(C)C)C(=O)N[C@@H](CCCCN)C(=O)N[C@@H](CCCCN)C(=O)N[C@@H](CC(C)C)C(N)=O` [Oct-(SEQ ID NO: 139)-NH2] (Octanoyl-KKLLKKLKKLLKKL-NH2), the “Minimal Inhibitory Concentration P” value in experiment [1] is 32 µg/mL. The “Minimal Inhibitory Concentration E” value in experiment [2] worked out at 16 µg/mL. In addition, the “Minimal Inhibitory Concentration CA” value in the experiment with C. albicans stood at 128 µg/mL.

For the compound `CCCCCCCC(=O)N[C@@H](CC(C)C)C(=O)N[C@@H](CCCCN)C(=O)N[C@@H](CCCCN)C(=O)N[C@@H](CC(C)C)C(=O)N[C@@H](CC(C)C)C(=O)N[C@@H](CCCCN)C(=O)N[C@@H](CCCCN)C(N)=O` [Oct-(SEQ ID NO: 137)-NH2] (Octanoyl-LKKLLKK-NH2), the “Minimal Inhibitory Concentration P” value in experiment [1] was 256 µg/mL. Also, the “Minimal Inhibitory Concentration E” value in experiment [2] was greater than 256 µg/mL. For the same compound, the “Minimal Inhibitory Concentration CA” value with C. albicans is 256 µg/mL.

For `CCCCCCCC(=O)N[C@@H](CC(C)C)C(=O)N[C@@H](CCCCN)C(=O)N[C@@H](CCCCN)C(=O)N[C@@H](CC(C)C)C(=O)N[C@@H](CC(C)C)C(=O)N[C@@H](CCCCN)C(=O)N[C@@H](CCCCN)C(=O)N[C@@H](CC(C)C)C(=O)N[C@@H](CCCCN)C(=O)N[C@@H](CCCCN)C(=O)N[C@@H](CC(C)C)C(=O)N[C@@H](CS)C(N)=O` [Oct-(SEQ ID NO: 133)-NH2] (Octanoyl-LKKLLKKLKKLC-NH2), the “Minimal Inhibitory Concentration P” value in experiment [1] is 32 µg/mL. Further, the “Minimal Inhibitory Concentration E” value in experiment [2] is 32 µg/mL. Also, the “Minimal Inhibitory Concentration CA” value with C. albicans stood at 128 µg/mL.

Take `CCCCCCCC(=O)N[C@@H](CCCN)C(=O)N[C@@H](CCCN)C(=O)N[C@@H](CC(C)C)C(=O)N[C@@H](CC(C)C)C(=O)N[C@@H](CCCN)C(=O)N[C@@H](CCC(N)=O)C(=O)N[C@@H](CC(C)C)C(=O)N[C@@H](CCCN)C(=O)N[C@@H](CCCN)C(=O)N[C@@H](CC(C)C)C(N)=O` [Oct-(SEQ ID NO: 144)-NH2] (Octanoyl-[Orn][Orn]LL[Orn]QL[Orn][Orn]L-NH2): the “Minimal Inhibitory Concentration P” value in experiment [1] came to 4 µg/mL. The “Minimal Inhibitory Concentration E” value in experiment [2] was 16 µg/mL. For the same compound, in the experiment on C. albicans, the “Minimal Inhibitory Concentration CA” value came to 32 µg/mL.

`CCCCCCCC(=O)N[C@@H](CCCCN)C(=O)N[C@@H](Cc1ccccc1)C(=O)N[C@@H](C)C(=O)N[C@@H](CCCCN)C(=O)N[C@@H](CCCCN)C(=O)N[C@@H](Cc1ccccc1)C(=O)N[C@@H](C)C(N)=O` [Oct-(SEQ ID NO: 118)-NH2] (Octanoyl-KFAKKFA-NH2): the “Minimal Inhibitory Concentration P” value in experiment [1] was greater than 256 µg/mL. Also, the “Minimal Inhibitory Concentration E” value in experiment [2] was greater than 256 µg/mL. For the same compound, in the experiment with C. albicans, the “Minimal Inhibitory Concentration CA” value is greater than 256 µg/mL.

As for `CCCCCCCC(=O)N[C@@H](CCCCN)C(=O)N[C@@H](CC(C)C)C(=O)N[C@@H](CC(C)C)C(=O)N[C@@H](CCCCN)C(=O)N[C@@H](CCCCN)C(=O)N[C@@H](CC(C)C)C(=O)N[C@@H](CCCCN)C(=O)N[C@@H](CCCCN)C(=O)N[C@@H](CC(C)C)C(N)=O` [Oct-(SEQ ID NO: 108)-NH2] (Octanoyl-KLLKKLKKL-NH2), the “Minimal Inhibitory Concentration P” value in experiment [1] was 4 µg/mL. Besides, in experiment [2], the “Minimal Inhibitory Concentration E” value came to 64 µg/mL. Moreover, the “Minimal Inhibitory Concentration CA” value with C. albicans stood at 64 µg/mL.

For the compound `CCCCCCCC(=O)N[C@@H](CCC(=O)O)C(=O)N[C@@H](CCCCN)C(=O)N[C@@H](CCCCN)C(=O)N[C@@H](CC(C)C)C(=O)N[C@@H](CC(C)C)C(=O)N[C@@H](CCCCN)C(=O)N[C@@H](CCCCN)C(=O)N[C@@H](CC(C)C)C(=O)N[C@@H](CCCCN)C(=O)N[C@@H](CCCCN)C(=O)N[C@@H](CC(C)C)C(N)=O` [Oct-(SEQ ID NO: 127)-NH2] (Octanoyl-EKKLLKKLKKL-NH2), the “Minimal Inhibitory Concentration P” value in experiment [1] was 32 µg/mL. Besides, the “Minimal Inhibitory Concentration E” value in experiment [2] is 32 µg/mL. Moreover, the “Minimal Inhibitory Concentration CA” value in the experiment with C. albicans amounted to 128 µg/mL.

`CCCCCCCC(=O)N[C@@H](CC(C)C)C(=O)N[C@@H](CCCCN)C(=O)N[C@@H](CCCCN)C(=O)N[C@@H](CC(C)C)C(=O)N[C@@H](CC(C)C)C(=O)N[C@@H](CCC(=O)O)C(=O)N[C@@H](CCCCN)C(=O)N[C@@H](CC(C)C)C(=O)N[C@@H](CCCCN)C(=O)N[C@@H](CCCCN)C(=O)N[C@@H](CC(C)C)C(N)=O` [Oct-(SEQ ID NO: 130)-NH2] (Octanoyl-LKKLLEKLKKL-NH2): the “Minimal Inhibitory Concentration P” value in experiment [1] was determined as 4 µg/mL. Further, the “Minimal Inhibitory Concentration E” value in experiment [2] came out at 4 µg/mL. Moreover, the “Minimal Inhibitory Concentration CA” value in the experiment on C. albicans was 8 µg/mL.

Consider `CCCCCCCC(=O)N[C@@H](CCCCN)C(=O)N[C@@H](CCCCN)C(=O)N[C@@H](CCCCN)C(=O)N[C@@H](CC(C)C)C(=O)N[C@@H](CC(C)C)C(=O)N[C@@H](CCCCN)C(=O)N[C@@H](CCCCN)C(=O)N[C@@H](CC(C)C)C(=O)N[C@@H](CCCCN)C(=O)N[C@@H](CCCCN)C(=O)N[C@@H](CC(C)C)C(N)=O` [Oct-(SEQ ID NO: 128)-NH2] (Octanoyl-KKKLLKKLKKL-NH2), for which, in experiment [1], the “Minimal Inhibitory Concentration P” value stood at 64 µg/mL. In experiment [2], the “Minimal Inhibitory Concentration E” value was determined as 32 µg/mL. Besides, in the experiment with C. albicans, the “Minimal Inhibitory Concentration CA” value was determined as 32 µg/mL.

For `CCCCCCC(=O)N[C@@H](CC(C)C)C(=O)N[C@@H](CCCCN)C(=O)N[C@@H](CCCCN)C(=O)N[C@@H](CC(C)C)C(=O)N[C@@H](CC(C)C)C(=O)N[C@@H](CCCCN)C(=O)N[C@@H](CCCCN)C(=O)N[C@@H](CC(C)C)C(=O)N[C@@H](CCCCN)C(=O)N[C@@H](CCCCN)C(=O)N[C@@H](CC(C)C)C(N)=O` [Hep-(SEQ ID NO: 110)-NH2] (Heptanoyl-LKKLLKKLKKL-NH2), the “Minimal Inhibitory Concentration P” value in experiment [1] came to 4 µg/mL. Further, in experiment [2], the “Minimal Inhibitory Concentration E” value was determined as 16 µg/mL. For the same compound, the “Minimal Inhibitory Concentration CA” value in the experiment on C. albicans was 32 µg/mL.
